Data reported in ChEMBL document CHEMBL5241130, “Integrating a phenotypic screening with a structural simplification strategy to identify 4-phenoxy-quinoline derivatives to potently disrupt the mitotic localization of Aurora kinase B” (Bioorg Med Chem, 2023).
Calls of active or inactive are those of the source. The rule behind the calls is not given here.

How the values were obtained:
[1] = target: Discoidin domain-containing receptor 2 (Homo sapiens) (UniProt Q16832); experiment: Inhibition of human recombinant DDR2 at 2 uM by KINOMEscan assay
Discoidin domain-containing receptor 2 (Homo sapiens), sequence (Q16832 whole entry, the tested form may be a part): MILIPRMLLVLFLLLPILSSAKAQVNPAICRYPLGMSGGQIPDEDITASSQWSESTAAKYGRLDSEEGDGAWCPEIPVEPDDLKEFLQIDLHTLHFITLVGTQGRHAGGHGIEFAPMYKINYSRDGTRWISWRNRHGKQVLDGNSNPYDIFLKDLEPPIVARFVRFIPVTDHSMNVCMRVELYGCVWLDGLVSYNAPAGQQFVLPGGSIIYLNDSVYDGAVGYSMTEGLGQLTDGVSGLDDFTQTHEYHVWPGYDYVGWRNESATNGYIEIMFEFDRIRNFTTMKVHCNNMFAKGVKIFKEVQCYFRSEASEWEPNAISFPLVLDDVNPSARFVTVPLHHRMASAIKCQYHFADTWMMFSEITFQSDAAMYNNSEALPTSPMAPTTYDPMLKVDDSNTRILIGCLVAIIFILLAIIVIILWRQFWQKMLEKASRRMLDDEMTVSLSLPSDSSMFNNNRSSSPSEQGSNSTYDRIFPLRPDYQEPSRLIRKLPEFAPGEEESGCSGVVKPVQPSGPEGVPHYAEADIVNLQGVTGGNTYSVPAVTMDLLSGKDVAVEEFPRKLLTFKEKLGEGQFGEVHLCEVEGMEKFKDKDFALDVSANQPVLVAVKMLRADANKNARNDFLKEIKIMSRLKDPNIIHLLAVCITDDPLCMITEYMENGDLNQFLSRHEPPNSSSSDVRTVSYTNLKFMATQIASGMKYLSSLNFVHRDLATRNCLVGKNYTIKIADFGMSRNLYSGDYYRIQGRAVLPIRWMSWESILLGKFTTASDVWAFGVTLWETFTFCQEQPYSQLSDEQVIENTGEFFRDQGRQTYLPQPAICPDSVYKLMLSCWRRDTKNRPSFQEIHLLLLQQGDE

HeLa = experiment: Cytotoxicity against human HeLa cells assessed as cell growth inhibition incubated for 3 days by MTT assay; format: functional, cell-based; conditions: time 3.0 day
[2] = Drug uptake in tumor of BALB/c nude mouse xenografted with human HCT-116 cells at 50 mg/kg, po bid for 7 days and measured at 6 hrs post-last drug administration by LC-MS/MS analysis; format: ADME, organism-based, Neoplasm; conditions: time 7 day, read-out: Drug uptake
[3] = Dose normalized AUC (0 to infinity) in Wistar rat at 20 mg/kg, po by LC-MS/MS analysis; format: ADME, organism-based; conditions: in vivo
[4] = target: Aurora kinase B (Homo sapiens) (UniProt Q96GD4); experiment: Inhibition of AURKB (unknown origin) by bio-chip based analysis
Aurora kinase B (Homo sapiens), sequence (Q96GD4 whole entry): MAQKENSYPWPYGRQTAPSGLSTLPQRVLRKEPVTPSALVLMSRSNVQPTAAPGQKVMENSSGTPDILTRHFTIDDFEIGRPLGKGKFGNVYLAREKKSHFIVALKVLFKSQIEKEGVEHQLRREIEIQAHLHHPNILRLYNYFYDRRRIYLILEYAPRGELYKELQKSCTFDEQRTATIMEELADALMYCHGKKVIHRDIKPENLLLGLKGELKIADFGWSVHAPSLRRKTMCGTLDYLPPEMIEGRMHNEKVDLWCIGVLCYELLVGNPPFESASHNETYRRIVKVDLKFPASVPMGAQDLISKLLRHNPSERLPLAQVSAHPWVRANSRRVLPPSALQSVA

[5] = target: Receptor-type tyrosine-protein kinase FLT3 (Homo sapiens, UniProt P36888); experiment: Inhibition of FLT3 (unknown origin); format: toxicity
Receptor-type tyrosine-protein kinase FLT3, sequence (P36888 whole entry): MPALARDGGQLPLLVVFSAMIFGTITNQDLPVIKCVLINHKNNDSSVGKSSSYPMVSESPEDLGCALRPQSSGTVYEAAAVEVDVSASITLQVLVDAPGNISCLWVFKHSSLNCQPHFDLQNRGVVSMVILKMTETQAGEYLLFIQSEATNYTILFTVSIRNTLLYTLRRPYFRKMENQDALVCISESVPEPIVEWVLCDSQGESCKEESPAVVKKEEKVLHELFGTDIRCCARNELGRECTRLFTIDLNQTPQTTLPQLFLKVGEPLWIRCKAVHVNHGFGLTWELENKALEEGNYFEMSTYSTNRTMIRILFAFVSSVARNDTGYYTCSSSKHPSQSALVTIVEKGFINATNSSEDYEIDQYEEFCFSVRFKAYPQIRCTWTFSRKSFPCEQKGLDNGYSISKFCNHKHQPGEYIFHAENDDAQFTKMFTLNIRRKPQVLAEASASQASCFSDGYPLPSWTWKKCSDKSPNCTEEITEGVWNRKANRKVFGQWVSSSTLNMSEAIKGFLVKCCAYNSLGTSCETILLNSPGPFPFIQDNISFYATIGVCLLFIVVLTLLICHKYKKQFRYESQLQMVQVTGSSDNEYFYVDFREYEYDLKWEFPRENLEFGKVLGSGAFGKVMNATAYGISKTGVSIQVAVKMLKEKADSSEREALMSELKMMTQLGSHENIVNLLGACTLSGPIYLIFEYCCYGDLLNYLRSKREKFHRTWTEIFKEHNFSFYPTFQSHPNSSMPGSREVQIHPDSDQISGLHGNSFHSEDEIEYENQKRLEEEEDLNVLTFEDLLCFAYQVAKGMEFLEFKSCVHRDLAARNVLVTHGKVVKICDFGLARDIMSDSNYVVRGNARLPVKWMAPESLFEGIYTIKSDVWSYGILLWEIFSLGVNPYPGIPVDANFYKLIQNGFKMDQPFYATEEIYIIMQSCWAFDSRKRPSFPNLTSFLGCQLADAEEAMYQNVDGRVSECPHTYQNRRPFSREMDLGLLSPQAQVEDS

[6] = target: Serine/threonine-protein kinase PLK2 (Homo sapiens) (UniProt Q9NYY3); experiment: Inhibition of PLK2 (unknown origin) by bio-chip based analysis
Serine/threonine-protein kinase PLK2 (Homo sapiens), sequence (Q9NYY3 whole entry, looked up): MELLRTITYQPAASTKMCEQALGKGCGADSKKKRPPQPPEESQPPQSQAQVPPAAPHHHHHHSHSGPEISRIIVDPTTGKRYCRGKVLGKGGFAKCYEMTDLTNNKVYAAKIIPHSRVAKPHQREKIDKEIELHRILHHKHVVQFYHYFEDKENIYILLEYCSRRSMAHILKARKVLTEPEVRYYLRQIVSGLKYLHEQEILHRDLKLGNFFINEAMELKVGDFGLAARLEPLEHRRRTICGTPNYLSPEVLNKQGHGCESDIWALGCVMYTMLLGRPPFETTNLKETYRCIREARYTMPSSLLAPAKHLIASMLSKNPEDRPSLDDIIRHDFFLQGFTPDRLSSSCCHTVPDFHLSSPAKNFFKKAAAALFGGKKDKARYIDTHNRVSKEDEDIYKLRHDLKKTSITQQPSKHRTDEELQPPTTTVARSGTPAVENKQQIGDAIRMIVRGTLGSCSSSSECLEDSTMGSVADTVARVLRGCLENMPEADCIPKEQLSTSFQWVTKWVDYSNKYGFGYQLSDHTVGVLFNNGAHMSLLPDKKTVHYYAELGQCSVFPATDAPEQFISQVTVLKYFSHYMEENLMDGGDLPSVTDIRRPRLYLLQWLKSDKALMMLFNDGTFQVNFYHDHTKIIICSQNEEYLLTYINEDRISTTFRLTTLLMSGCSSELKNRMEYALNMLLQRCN

[7] = Ratio of AUC (0 to 6 hrs) in BALB/c nude mouse xenografted with human HCT-116 cells at 50 mg/kg, po bid for 7 days to AUC (0 to 6 hrs) in BALB/c nude mouse xenografted with human HCT-116 cells administered as single dose; format: ADME, organism-based; conditions: in vivo
[8] = Half life in Wistar rat at 2 mg/kg, iv measured for 24 hrs by LC-MS/MS analysis; format: ADME, organism-based; conditions: in vivo
[9] = target: Aurora kinase B (Homo sapiens) (UniProt Q96GD4); experiment: Disruption of mitotic localization of AURKB at the spindle mid-zone and equatorial cortex in human RPE-MYC cells expressing BCL2 at 40 nM measured after 6 hrs by immunofluorescence staining analysis; format: cell-based
[10] = MRT (0 to infinity) in Wistar rat at 2 mg/kg, iv by LC-MS/MS analysis; format: ADME, organism-based; conditions: in vivo
MDA-MB-231 = experiment: Cytotoxicity against human MDA-MB-231 cells assessed as cell growth inhibition incubated for 3 days by MTT assay; format: functional, cell-based; conditions: time 3.0 day
[11] = Lipophilicity, log D of the compound in Octanol and HCl buffer at pH 2.2 incubated for 24 hrs under shaking condition followed by incubation for 1 hr without shaking by LC-MS analysis; format: physicochemical
[12] = target: Aurora kinase B (Homo sapiens) (UniProt Q96GD4); experiment: Disruption of kinetochore localization of AURKB during anaphase of human RPE-MYC cells expressing BCL2 at 40 nM measured after 6 hrs by immunofluorescence staining analysis; format: cell-based
[13] = target: Rho-associated protein kinase 2 (Homo sapiens) (UniProt O75116); experiment: Inhibition of ROCK2 (unknown origin) by bio-chip based analysis
Mus musculus [14] = experiment: Induction of polyploidy in BALB/c nude mouse xenografted with human HCT-116 cells assessed as increase in polyploid cells in tumor at 50 mg/kg, po bid for 7 days by immunohistochemical staining based analysis relative to control; format: functional; conditions: time 7 day
[15] = Drug degradation in HCl buffer at pH 2.2 measured after 72 hrs by LC-MS analysis; format: physicochemical; conditions: read-out: Drug degradation
[16] = target: Aurora kinase B (Homo sapiens) (UniProt Q96GD4); experiment: Disruption of mitotic localization of AURKB in human RPE-MYC H2B-GFP cells assessed as induction of mitotic arrest measured after 24 hrs by fluorescence high content cell imaging analysis; format: cell-based
[17] = Kinetic solubility of the compound in HCl buffer at pH 2.2 measured after 72 hrs by LC-MS analysis; format: physicochemical; conditions: read-out: Kinetic_solubility
[18] = system: Tyrosine-protein kinase ABL1 (Homo sapiens), P00519 [Q252H]; experiment: Inhibition of human recombinant ABL1 Q252H mutant at 2 uM by KINOMEscan assay
HCT-116 = experiment: Cytotoxicity against human HCT-116 cells assessed as cell growth inhibition incubated for 3 days by MTT assay; format: functional, cell-based; conditions: time 3.0 day
[19] = target: Tyrosine-protein kinase ABL1 (Homo sapiens) (UniProt P00519); experiment: Inhibition of human recombinant ABL1 at 2 uM by KINOMEscan assay
[20] = target: Aurora kinase B (Homo sapiens) (UniProt Q96GD4); experiment: Disruption of kinetochore localization of AURKB during prophase of human RPE-MYC cells expressing BCL2 at 40 nM measured after 6 hrs by immunofluorescence staining analysis; format: cell-based
[21] = target: Mast/stem cell growth factor receptor Kit (Homo sapiens, UniProt P10721); experiment: Inhibition of c-Kit (unknown origin); format: toxicity
Mast/stem cell growth factor receptor Kit, sequence (P10721 whole entry): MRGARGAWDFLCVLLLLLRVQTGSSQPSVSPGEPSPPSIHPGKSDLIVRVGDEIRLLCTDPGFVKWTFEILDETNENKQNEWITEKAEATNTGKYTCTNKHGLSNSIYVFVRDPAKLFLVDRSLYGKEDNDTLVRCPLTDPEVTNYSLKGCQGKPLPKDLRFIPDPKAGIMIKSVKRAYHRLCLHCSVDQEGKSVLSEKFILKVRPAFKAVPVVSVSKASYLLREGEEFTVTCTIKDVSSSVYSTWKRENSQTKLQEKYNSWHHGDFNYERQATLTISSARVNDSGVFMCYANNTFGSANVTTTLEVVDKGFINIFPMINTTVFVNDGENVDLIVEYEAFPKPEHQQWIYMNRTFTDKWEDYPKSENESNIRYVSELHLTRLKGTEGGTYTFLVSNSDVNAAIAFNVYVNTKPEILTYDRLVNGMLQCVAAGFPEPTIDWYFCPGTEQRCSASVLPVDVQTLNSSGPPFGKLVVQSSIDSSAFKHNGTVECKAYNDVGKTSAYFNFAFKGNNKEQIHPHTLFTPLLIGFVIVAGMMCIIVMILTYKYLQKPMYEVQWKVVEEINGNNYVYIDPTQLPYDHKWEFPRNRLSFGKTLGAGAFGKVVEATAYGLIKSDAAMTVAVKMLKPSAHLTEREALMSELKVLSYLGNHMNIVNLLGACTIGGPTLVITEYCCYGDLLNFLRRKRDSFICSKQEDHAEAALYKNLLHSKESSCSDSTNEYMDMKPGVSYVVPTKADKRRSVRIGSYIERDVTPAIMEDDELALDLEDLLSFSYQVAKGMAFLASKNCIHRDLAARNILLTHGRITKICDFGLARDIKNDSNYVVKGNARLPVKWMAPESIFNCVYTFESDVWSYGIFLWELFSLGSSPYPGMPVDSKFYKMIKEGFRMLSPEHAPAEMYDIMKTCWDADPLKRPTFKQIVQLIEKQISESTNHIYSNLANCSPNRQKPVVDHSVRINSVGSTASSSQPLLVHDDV

A549 = experiment: Cytotoxicity against human A549 cells assessed as cell growth inhibition incubated for 3 days by MTT assay; format: functional, cell-based; conditions: time 3.0 day
[22] = Apparent volume of distribution in Wistar rat at 20 mg/kg, po measured for 24 hrs by LC-MS/MS analysis; format: ADME, organism-based; conditions: in vivo
SW480 = experiment: Cytotoxicity against human SW480 cells assessed as cell growth inhibition incubated for 3 days by MTT assay; format: functional, cell-based; conditions: time 3.0 day
[23] = target: Aurora kinase B (Homo sapiens) (UniProt Q96GD4); experiment: Disruption of mitotic localization of AURKB in human RPE-MYC cells expressing BCL2 assessed as mitotic index at 40 nM measured after 6 hrs by fluorescence high content cell imaging analysis (reference value: 5.3%); format: cell-based
[24] = Plasma concentration in BALB/c nude mouse xenografted with human HCT-116 cells at 50 mg/kg, po bid for 7 days and measured at 12 hrs post-last drug administration by LC-MS/MS analysis; format: ADME, organism-based; conditions: time 7 day
[25] = MRT (0 to infinity) in Wistar rat at 20 mg/kg, po by LC-MS/MS analysis; format: ADME, organism-based; conditions: in vivo
Mus musculus [26] = experiment: Induction of mitotic arrest in BALB/c nude mouse xenografted with human HCT-116 cells assessed as increase in mitotic index by measuring increase in accumulation of H3Ser10P positive cells in tumor at 50 mg/kg, po bid for 7 days by immunohistochemical staining based analysis relative to control; format: functional; conditions: time 7 day
[27] = Ratio of drug uptake in tumor of BALB/c nude mouse xenografted with human HCT-116 cells at 50 mg/kg, po bid for 7 days and measured at 6 hrs post-last drug administration to MEC for Disruption of mitotic localization of AURKB in human RPE-MYC H2B-GFP cells assessed as induction of polyploidy
[28] = target: Aurora kinase B (Homo sapiens) (UniProt Q96GD4); experiment: Disruption of mitotic localization of AURKB in human RPE-MYC cells expressing BCL2 assessed as disruption of PLK1 localization at centrosome during prophase at 40 nM measured after 6 hrs by immunofluorescence staining analysis; format: cell-based
[29] = target: Mitotic checkpoint serine/threonine-protein kinase BUB1 (Homo sapiens) (UniProt O43683); experiment: Inhibition of Bub1 (unknown origin) by bio-chip based analysis
Mitotic checkpoint serine/threonine-protein kinase BUB1 (Homo sapiens), sequence (O43683 whole entry, looked up): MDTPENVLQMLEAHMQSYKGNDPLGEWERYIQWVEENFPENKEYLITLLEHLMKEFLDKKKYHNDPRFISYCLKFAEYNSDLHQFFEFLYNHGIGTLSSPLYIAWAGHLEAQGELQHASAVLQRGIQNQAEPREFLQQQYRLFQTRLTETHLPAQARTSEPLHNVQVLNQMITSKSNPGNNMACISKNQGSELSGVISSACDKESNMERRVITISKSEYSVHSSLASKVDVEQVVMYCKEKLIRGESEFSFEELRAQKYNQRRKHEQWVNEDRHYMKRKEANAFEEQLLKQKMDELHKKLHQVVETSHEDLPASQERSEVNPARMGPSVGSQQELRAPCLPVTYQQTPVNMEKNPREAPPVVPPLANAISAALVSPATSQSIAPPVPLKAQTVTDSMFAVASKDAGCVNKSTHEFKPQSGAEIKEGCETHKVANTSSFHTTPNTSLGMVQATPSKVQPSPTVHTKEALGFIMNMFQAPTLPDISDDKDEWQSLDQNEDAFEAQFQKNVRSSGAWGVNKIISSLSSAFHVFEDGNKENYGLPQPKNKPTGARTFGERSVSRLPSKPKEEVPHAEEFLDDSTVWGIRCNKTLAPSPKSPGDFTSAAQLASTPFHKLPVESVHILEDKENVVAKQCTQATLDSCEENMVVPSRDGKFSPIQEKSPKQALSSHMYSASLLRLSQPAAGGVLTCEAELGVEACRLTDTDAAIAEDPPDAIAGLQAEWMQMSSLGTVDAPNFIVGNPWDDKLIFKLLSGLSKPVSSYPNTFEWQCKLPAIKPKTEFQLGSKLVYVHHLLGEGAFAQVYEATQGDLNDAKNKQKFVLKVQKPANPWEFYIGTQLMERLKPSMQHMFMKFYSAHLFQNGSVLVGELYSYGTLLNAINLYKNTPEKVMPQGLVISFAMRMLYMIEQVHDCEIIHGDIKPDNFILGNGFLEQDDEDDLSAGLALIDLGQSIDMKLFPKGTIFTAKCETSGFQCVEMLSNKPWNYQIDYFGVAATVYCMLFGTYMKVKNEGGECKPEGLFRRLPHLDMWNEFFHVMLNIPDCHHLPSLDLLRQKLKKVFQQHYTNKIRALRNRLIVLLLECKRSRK

[30] = Toxicity in BALB/c nude mouse xenografted with human HCT-116 cells assessed as animal's well being at 50 mg/kg, po bid for 7 days; format: organism-based; conditions: in vivo, 168 h, time 7 day

COc1cc(NC(C)=O)cc(Oc2ccnc3ccc(OC)cc23)c1
inhibition [1]: Active
Activity (HeLa): Active
concentration at 168 h [2]: 239 ng/mL
AUC/dose [3]: 149.54 ng·h/mL/mg/kg
inhibition [4]: inactive
inhibition (INH) [5]: Not Active
inhibition [6]: inactive
Ratio [7]: 2
half-life [8]: 1.09 h
Activity [9]: Active
MRT inf [10]: 2.09 h
Activity (MDA-MB-231): Active
logD at 25 h [11]: 0.31
Activity [12]: Active
inhibition [13]: inactive
fold change (FC) (Mus musculus [14]): 1.7
degraded at 72 h [15]: 0%
MEC [16]: 0.01 µM
solubility kinetic at 72 h [17]: > 190 µM
inhibition [18]: Active
Activity (HCT-116): Active
inhibition [19]: Active
Activity [20]: inactive
inhibition (INH) [21]: Not Active
Activity (A549): Active
Vz [22]: 15.41 L/kg
Activity (SW480): Active
Activity [23]: 15.3%
concentration at 168 h [24]: 3.27 ng/mL
MRT inf [25]: 2.83 h
fold change (FC) (Mus musculus [26]): 6.7
Ratio [27]: 70
Activity [28]: inactive
inhibition [29]: inactive
Activity [30]: Non-Toxic
